Literature values, collected in US11141417B2 (priority 2013, dated 2021).
Entries after “also recorded” stand apart in the source; their conditions may differ.

Conditions: classification in words

C[C@@H](c1ncncc1F)[C@](O)(Cn1cncn1)c1ccc(F)cc1F [Voriconazole, (2R,3S)-2-(2,4-difluorophenyl)-3-(5-fluoro-4-pyrimidinyl)-1-(1H-1,2,4triazol-1-yl)-2-butanol]
solubility in water: only sparingly soluble in water; also recorded: very slightly soluble in water
